{"source": "patent US8906897B2", "about": "“Antimicrobial agents based on hemin derivatives” (Obschestvo S Ogranichennoi Otvetstvennostiyu …, priority 2009, dated 2014)", "key": {"Candida albicans No. 927": {"test_system": "Candida albicans No. 927", "experiment": "Antifungal activity, culture growth with pH indicator", "assay_type": "cell-based", "set-up": "key to Test culture growth at various dilutions of the agent: (−) No growth; the indicator is blue; (±) Weak growth; the indicator is yellow, but the precipitate of grown cells looks as a diffuse spot; (+) Strong growth; the indicator is yellow, and the cell precipitate looks as a compact spot", "outline": "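Museum strains grown one day on glucose-peptone-yeast medium at 32° C; compounds two-fold serially diluted (DMSO ≤5% for insoluble ones) in synthetic medium with Bromocresol Blue, ~10^3 CFU/mL. Growth read as blue-to-yellow shift (pH 5.5→4.5) after 1 h at 32° C with stirring, then 27° C: C. neoformans 2 and 5 days, C. albicans 1 and 4 days.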"}, "[1]": {"experiment": "Solubility of tested agents (water / DMSO)", "details": "water or DMSO"}, "[2]": {"test_system": "Enterococcus faecalis No. 559", "experiment": "Specific activity against resistant bacterial strains", "assay_type": "cell-based", "details": "Ent. faecalis 559; 24 h, 36° C.", "method": "(§1) The tested agents were water-soluble hemin derivatives (compounds VII and XVIII) or DMSO-soluble derivatives (compounds VIII, XV, and XIV). Vancomycin was the reference compound. Each compound was tested in three replicas.\n(§2) Sterile single-use flat-bottomed 96-well plates, Petri dishes, pipettes, tips, and test tubes (Pan-Eco, Moscow) were used in the study.\n(§3) The nutritional media used were as follows. A working Mueller Hinton broth was prepared from dry media (Mueller Hinton broth, Acumedia, Baltimore) and sterilized by autoclaving at 121° C. for 15 min.\n(§4) Staphylococcus aureus was cultured on the Tripticase Soy Agar (BBL) commercially available dry medium. Enterococcus faecalis was cultured on the Columbia Agar Base (BBL) commercially available dry medium. These media were sterilized by autoclaving at 121° C. for 15 min.\n(§5) Bacterial inoculum was fixed and equal to 5×10^5 CFU/mL.\n(§6) For water-soluble compounds, wells from 2nd through 8th were added with the solvent (water) in an amount of 15 μL per well, then the 1st well was added with 30 μL of the stock solution of the tested compound in water with a concentration of 1×10^3M, and the concentration was adjusted to 0.007×10^3 M by serial twofold dilutions. A 10-μL portion was taken from every well, and 190 μL of the bacterial culture (10^5 CFU) was added per well.\n(§7) For DMSO-soluble compounds, wells from 2nd through 8th were added with the solvent (DMSO) in an amount of 10 μL per well, then the 1st well was added with 20 μL of the stock solution of the tested compound in […] with a concentration of 5×10^3M, and the concentration was adjusted to 0.039×10^3 M by serial twofold dilutions. A 2-μL portion was taken from each well, and 198 μL of the bacterial culture (10^5 CFU) was added per well.\n(§8) The control comprised wells free of tested compounds (culture growth control). In addition, purity control of nutritional media and solvents was used. Plates were incubated in a thermostat at 36° C. for 24 hours.\n(§9) Culture growth was evaluated visually by comparison of how microorganisms grew in the presence of tested compounds and in the absence of them. MSC (the minimal suppressing concentration) was set equal to the last dilution of a tested agent which suppressed bacterial culture growth."}, "[3]": {"test_system": "Staphylococcus aureus No. 25923 ATCC", "experiment": "Specific activity against resistant bacterial strains", "assay_type": "cell-based", "details": "St. aureus 25923; 24 h, 36° C.", "method": "as §1, §2, §3, §4, §5, §6, §7, §8, §9"}, "[4]": {"test_system": "Staphylococcus epidermidis No. 533", "experiment": "Specific activity against resistant bacterial strains", "assay_type": "cell-based", "details": "St. epiderm 533; 24 h, 36° C.", "method": "as §1, §2, §3, §4, §5, §6, §7, §8, §9"}, "[5]": {"test_system": "Staphylococcus aureus No. 100 KC", "experiment": "Specific activity against resistant bacterial strains", "assay_type": "cell-based", "details": "St. aureus 100 KC; 24 h, 36° C.", "method": "as §1, §2, §3, §4, §5, §6, §7, §8, §9"}, "[6]": {"test_system": "Cryptococcus neoformans No. 3465", "experiment": "Antifungal activity, culture growth with pH indicator", "assay_type": "cell-based", "set-up": "key: (−) No growth; the indicator is blue; (±) Weak growth; the indicator is yellow, but the precipitate of grown cells looks as a diffuse spot; (+) Strong growth; the indicator is yellow, and the cell precipitate looks as a compact spot", "method": "The subjects of action were Cryptococcus neoformans No. 3465 museum strain cells and Candida albicans No. 927 museum strain cells grown for one day on a glucose-peptone-yeast medium at 32° C. The reference compounds were the following antimycotics: pimafucin, amphotericin, and fluconazole.\nExperiments were carried out on round-bottomed 96-well plates (Lenmedpolimer) in two replicas. To the first column (0), added was 10 μL of the stock solution of a water-soluble agent with concentrations of 10^−2 to 10^−3 mol/L; to the second column, added was also the same 10 μL plus 10 μL of the solvent corresponding to the given compound, suspended, 10 μL was transferred to the next well, and so on to the 8th well of the row. Stock solutions of water-insoluble compounds of general formula (I) (compounds V, VIII, XII, XIII, XIV, and hemin) were prepared in DMSO and were diluted with DMSO and the medium. DMSO concentrations in the reaction mixture in a well were ≦5%.\nThen, to every well added was 190 μL of a Cr. neoformans cell culture suspension in a synthetic nutritional medium (so that the final cell concentration was approximately 10^3 CFU/mL), this medium containing Bromocresol Blue as a pH-indicator (pH: 5.5; indicator color: blue). As pH reduced to 4.5, the indicator in the culture changed its color to yellow, thereby indicating fungal cell growth. The synthetic medium comprised the following components: salts, amino acids, microelements, vitamins, an antibiotic, and glucose (30 components altogether) [Yarrow, D., “Methods for the Isolation, Maintenance and Identification of Yeasts,” in: The Yeasts. A Taxonomic Study, Ed. by Kurtsman, C. P, and Fell, M., Elsevier, 1998, pp. 77-100]. After being inoculated with a Cr. neoformans cell suspension, the plate was incubated at 32° C. for 1 h with stirring, then transferred to a stationary thermostat and incubated for two and five days at 27° C. After being inoculated with a C. albicans cell suspension, the plates were incubated for 1 h at 32° C. with stirring, then transferred to a stationary thermostat and incubated for one and four days at 27° C."}}}
{"smiles": "C=CC1=C(C)c2cc3[n-]c(cc4nc(cc5[n-]c(cc1n2)c(C)c5CCC(=O)N[C@@H](CCCNC(=N)N)C(=O)OC)C(CCC(=O)N[C@@H](CCCNC(=N)N)C(=O)OC)=C4C)c(C)c3C=C.[Cl-].[Fe+3]", "note": "[VII]", "values": [{"measurement": "Test culture growth at various dilutions of the agent", "setting": "Candida albicans No. 927; dilution 0: 1 × 10^−4 M", "value": "±"}, {"measurement": "Test culture growth at various dilutions of the agent", "setting": "Candida albicans No. 927; dilution : 2 of 1 × 10^−4 M", "value": "+"}, {"measurement": "Test culture growth at various dilutions of the agent", "setting": "Candida albicans No. 927; dilution : 4 of 1 × 10^−4 M", "value": "+"}, {"measurement": "Test culture growth at various dilutions of the agent", "setting": "Candida albicans No. 927; dilution : 8 of 1 × 10^−4 M", "value": "+"}, {"measurement": "Test culture growth at various dilutions of the agent", "setting": "Candida albicans No. 927; dilution : 16 of 1 × 10^−4 M", "value": "+"}, {"measurement": "Test culture growth at various dilutions of the agent", "setting": "Candida albicans No. 927; dilution : 32 of 1 × 10^−4 M", "value": "+"}, {"measurement": "Test culture growth at various dilutions of the agent", "setting": "Candida albicans No. 927; dilution : 64 of 1 × 10^−4 M", "value": "+"}, {"measurement": "solubility (in words)", "setting": "[1]", "value": "water-soluble"}, {"measurement": "MICs for hemin derivatives against Gr+ strains", "setting": "[2]", "value": 25, "unit": "µM"}, {"measurement": "MICs for hemin derivatives against Gr+ strains", "setting": "[3]", "value": "2.5. ×10^−5 M"}, {"measurement": "MICs for hemin derivatives against Gr+ strains", "setting": "[4]", "value": 25, "unit": "µM"}, {"measurement": "MICs for hemin derivatives against Gr+ strains", "setting": "[5]", "value": 50, "unit": "µM"}, {"measurement": "Test culture growth at various dilutions of the agent on day 2", "setting": "[6]; dilution 0: 5.00 × 10^−5 M", "value": "−"}, {"measurement": "Test culture growth at various dilutions of the agent on day 2", "setting": "[6]; dilution : 2 of 5.00 × 10^−5 M", "value": "±"}, {"measurement": "Test culture growth at various dilutions of the agent on day 2", "setting": "[6]; dilution : 4 of 5.00 × 10^−5 M", "value": "+"}, {"measurement": "Test culture growth at various dilutions of the agent on day 2", "setting": "[6]; dilution : 8 of 5.00 × 10^−5 M", "value": "+"}, {"measurement": "Test culture growth at various dilutions of the agent on day 2", "setting": "[6]; dilution : 16 of 5.00 × 10^−5 M", "value": "+"}, {"measurement": "Test culture growth at various dilutions of the agent on day 2", "setting": "[6]; dilution : 32 of 5.00 × 10^−5 M", "value": "+"}, {"measurement": "Test culture growth at various dilutions of the agent on day 2", "setting": "[6]; dilution : 64 of 5.00 × 10^−5 M", "value": "+"}, {"measurement": "Test culture growth at various dilutions of the agent on day 2", "setting": "[6]; dilution : 128 of 5.00 × 10^−5 M", "value": "+"}]}
